Target: T1, human TLR8 (Homo sapiens, UniProt Q9NR97)
T1 sequence (Q9NR97 27-1041): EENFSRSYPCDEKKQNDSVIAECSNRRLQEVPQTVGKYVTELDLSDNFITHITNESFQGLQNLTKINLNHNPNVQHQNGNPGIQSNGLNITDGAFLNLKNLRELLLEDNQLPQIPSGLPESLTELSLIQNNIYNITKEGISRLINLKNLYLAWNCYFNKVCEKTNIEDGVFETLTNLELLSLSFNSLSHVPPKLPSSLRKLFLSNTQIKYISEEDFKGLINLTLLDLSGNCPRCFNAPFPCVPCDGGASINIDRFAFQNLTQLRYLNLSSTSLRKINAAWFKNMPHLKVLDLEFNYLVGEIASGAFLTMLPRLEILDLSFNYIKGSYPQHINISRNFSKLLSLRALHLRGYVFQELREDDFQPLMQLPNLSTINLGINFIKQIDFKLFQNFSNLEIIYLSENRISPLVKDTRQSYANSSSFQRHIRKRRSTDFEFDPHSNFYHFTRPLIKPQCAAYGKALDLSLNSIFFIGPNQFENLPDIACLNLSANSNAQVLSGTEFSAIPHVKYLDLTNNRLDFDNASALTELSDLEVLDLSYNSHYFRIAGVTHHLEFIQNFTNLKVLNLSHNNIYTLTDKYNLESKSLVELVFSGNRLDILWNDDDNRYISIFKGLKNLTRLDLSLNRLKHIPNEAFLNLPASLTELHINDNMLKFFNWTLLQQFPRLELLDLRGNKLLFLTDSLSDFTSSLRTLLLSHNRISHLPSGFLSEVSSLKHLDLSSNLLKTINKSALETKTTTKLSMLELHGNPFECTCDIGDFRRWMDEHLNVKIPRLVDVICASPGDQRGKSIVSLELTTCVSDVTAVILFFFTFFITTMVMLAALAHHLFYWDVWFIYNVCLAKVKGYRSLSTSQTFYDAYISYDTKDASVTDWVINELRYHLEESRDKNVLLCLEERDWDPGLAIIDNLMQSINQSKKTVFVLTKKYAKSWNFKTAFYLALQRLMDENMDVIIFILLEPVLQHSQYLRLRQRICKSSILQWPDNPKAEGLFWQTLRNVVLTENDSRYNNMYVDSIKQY
Assay: HEK293-Blue-hTLR-8 cells assay (SEAP reporter, R848 stimulation)
Format: cell-based
Conditions: HEK293-Blue-hTLR8 cells, R848, 20 hrs; 0.003 is the lowest tested concentration; read-out: HEK/hTLR8 IC50
How it was run: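 Antagonist mode: HEK293-Blue-hTLR8 cells at 250,000–450,000 cells/mL in DMEM with 10% FBS were treated with serially diluted compound (1% DMSO final) plus R848 (10 µL of 60 µM stock) for 20 h at 37 °C. NF-κB/AP-1-driven SEAP in supernatant measured with QUANTI-Blue, 2 h at 37 °C, absorbance 620–655 nm.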

SMILES | IC50 [nM]
C[C@@H]1CN(c2ccc(C#N)c3ncccc23)C[C@H](CN2Cc3ccc(N4CC5CCC(C4)N5)cc3C2)O1 [Example 42, 5-[(2S,6R)-2-[[5-(3,8-diazabicyclo[3.2.1]octan-3-yl)isoindolin-2-yl]methyl]-6-methyl-morpholin-4-yl]quinoline-8-carbonitrile] | 13
C[C@@H]1CN(c2ccc(C#N)c3nccnc23)C[C@H](CN2Cc3cnc(N4CCNCC4)cc3C2)O1 [Example 60, 8-[(2R,6S)-2-methyl-6-[(6-piperazin-1-yl-1,3-dihydropyrrolo[3,4-c]pyridin-2-yl)methyl]morpholin-4-yl]quinoxaline-5-carbonitrile] | < 3
C[C@@H]1CN(c2ccc(C#N)c3ncccc23)C[C@H](CN2CCc3cc(N4CCNCC4)ccc3C2)O1 [Example 19, 5-[(2R,6S)-2-methyl-6-[(6-piperazin-1-yl-3,4-dihydro-1H-isoquinolin-2-yl)methyl]morpholin-4-yl]quinoline-8-carbonitrile] | 6
C[C@@H]1CN(c2ccc(C#N)c3ncccc23)C[C@H](CN2Cc3ccc(N4CCNC[C@@H]4CO)cc3C2)O1 [Example 82, 5-[(2S,6R)-2-[[5-[(2R)-2-(hydroxymethyl)piperazin-1-yl]isoindolin-2-yl]methyl]-6-methyl-morpholin-4-yl]quinoline-8-carbonitrile] | 14
C[C@@H]1CN(c2ccc(C#N)c3ncccc23)C[C@H](CNCc2ccccc2)O1 [ER-886509, reference compound] | 139
C[C@@H]1CN(c2ccc(C#N)c3ncccc23)C[C@H](CN2Cc3ccc(N4CCNCC4C(F)F)cc3C2)O1 (stereo partly drawn) [Example 76, 5-[(2S,6R)-2-[[5-[2-(difluoromethyl)piperazin-1-yl]isoindolin-2-yl]methyl]-6-methyl-morpholin-4-yl]quinoline-8-carbonitrile] | 4

Source: patent EP3623369A1, “NOVEL MORPHOLINYL AMINE COMPOUNDS FOR THE TREATMENT OF AUTOIMMUNE DISEASE” (F. Hoffmann-La Roche AG, priority 2018, dated 2020)
